The NIST ThermoML archive (doi:10.1016/j.jct.2010.02.001)

Legend:
[1] = Liquid, Ebulliometric method (Recirculating still)
[2] = refractive index (Na D-line) (dimensionless); xn = mol fraction of the nth substance listed; conditions: 293.15 K, 101 kPa, Liquid, Standard Abbe refractometry

CCCCO [butan-1-ol]
[1]
Conditions	vapor or sublimation pressure [kPa]
356.35 K	25.3
359.45 K	29.3
362.95 K	33.5
368.6 K	42.8
373.45 K	52.5
377.3 K	61.2
381.9 K	72.8
386.05 K	84.9
391.95 K	105.3
395.8 K	120.1

CCCCO [butan-1-ol] + CCCO
[2]
Conditions	refractive index
x2 = 0	1.3992
x2 = 0.0852	1.3979
x2 = 0.1369	1.3971
x2 = 0.1987	1.3962
x2 = 0.2741	1.395
x2 = 0.3521	1.3939
x2 = 0.4218	1.3928
x2 = 0.5	1.3916
x2 = 0.5742	1.3905
x2 = 0.6588	1.3892
x2 = 0.7123	1.3884
x2 = 0.7986	1.3871
x2 = 0.862	1.3862
x2 = 0.936	1.385

CCCO [propan-1-ol]
[1]
Conditions	vapor or sublimation pressure [kPa]
337.95 K	25.6
341.35 K	30.1
346.15 K	37.4
350.8 K	46
353.25 K	51.1
357.35 K	60.7
362.45 K	74.7
366.25 K	86.8
370.4 K	101.8
373.65 K	114.9

CCCO [propan-1-ol] + CCCCO
Conditions	refractive index
[2], x1 = 1	1.3841
